# Target: STAT3 (Homo sapiens (Human), UniProt P40763)
# Assay: Fluorescence polarization assay, inhibition of binding to STAT3
# Conditions: inhibition of binding to STAT3 in a fluorescence polarization assay; read-out: Ki (FP)
# Procedure: The fluorescent polarization experiments were performed on an Infinite M1000 (Tecan, Crailsheim, Germany). All assays were performed in the same buffer conditions of 50 mM NaCl, 10 mM Hepes, pH 7.5, 1 mM EDTA, and 2 mM dithiothreitol. Fluorescent-labelled peptides were kept at a final concentration of 10nM in buffered solution. […] of labelled peptides were added to […] of a 300 nM STAT3 protein solution (provided by SignalChem in 50 mM Tris-HCl, pH 7.5, 150 mM NaCl, 0.25 mM DTT, 0.1 mM PMSF, 25% glycerol and stored at −80° C.). Inhibitory molecules were dissolved in pure DMSO and diluted using buffer solution to produce four final concentrations ([…]). 7.5 μL of the inhibitory molecule solution was mixed with the STAT3 protein and labelled peptide solution in black 384-flat well microplates (Coming), and incubated for 15-30 minutes. The M1000 performed a shaking cycle and then read the plates. IC50′s were derived from the output using the curve-fitting software OriginPro 8 (Northampton, MA). The FP data was modelled by the following equation:
# [formula] where X was the concentration of inhibitor and ρwas the corresponding fluorescence at that concentration. The free parameter was half the maximal inhibitory concentration (IC50) and the limiting values was the maximal measured fluorescence polarization (ρ1) and the minimal fluorescence polarization (ρ2). Origin curve fitting software utilizes the Levenberg-Marquardt algorithm and reduced chi-square criterion for convergence. The inhibitor dissociation constant, Ki, was calculated from the derived IC50 values, as per the following formula: […]
# Further details of the fluorescence polarization assay are as described previously (Zhang X, et al. (2010) A novel small-molecule disrupts Stat3 SH2domainphosphotyrosine interactions and Stat3-dependent tumor processes. Biochem Pharmacol 79: 1398-1409).
# Sequence of STAT3 (P40763 whole entry): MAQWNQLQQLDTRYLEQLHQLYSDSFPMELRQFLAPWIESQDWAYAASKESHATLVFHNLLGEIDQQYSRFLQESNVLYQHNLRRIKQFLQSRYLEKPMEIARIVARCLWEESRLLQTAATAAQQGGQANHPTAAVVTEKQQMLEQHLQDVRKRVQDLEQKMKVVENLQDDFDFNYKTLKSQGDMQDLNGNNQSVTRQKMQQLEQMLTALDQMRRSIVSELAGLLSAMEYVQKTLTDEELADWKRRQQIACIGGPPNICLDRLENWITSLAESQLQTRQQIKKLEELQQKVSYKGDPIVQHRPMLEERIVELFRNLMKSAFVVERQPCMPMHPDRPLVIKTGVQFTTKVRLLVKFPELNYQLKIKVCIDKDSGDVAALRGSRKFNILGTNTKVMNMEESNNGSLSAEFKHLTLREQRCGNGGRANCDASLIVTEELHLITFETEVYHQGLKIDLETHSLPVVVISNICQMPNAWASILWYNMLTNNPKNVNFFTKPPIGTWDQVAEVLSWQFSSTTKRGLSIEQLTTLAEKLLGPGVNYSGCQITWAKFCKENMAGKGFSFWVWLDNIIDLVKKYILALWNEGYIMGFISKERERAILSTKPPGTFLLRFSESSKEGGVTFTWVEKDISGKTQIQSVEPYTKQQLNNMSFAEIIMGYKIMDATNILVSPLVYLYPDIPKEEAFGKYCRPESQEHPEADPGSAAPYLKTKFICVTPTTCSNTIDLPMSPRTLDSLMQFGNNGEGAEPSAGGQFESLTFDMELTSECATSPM
row,Structure (SMILES),Ki
1,Cc1ccc(S(=O)(=O)N2CCC[C@@H]2C(=O)N(Cc2ccc(C3CCCCC3)cc2)c2ccc(C(=O)O)c(O)c2)cc1 [BP2-032],> 50 µM
2,Cc1ccc(S(=O)(=O)N(CC(=O)N(Cc2ccc(C3CCCCC3)cc2)c2ccc(C(=O)O)c(O)c2)CC(C)C)cc1 [BP2-046],8.3 ± 0.3 µM
3,Cc1ccc(S(=O)(=O)N(CC(=O)N(Cc2ccc(C3CCCCC3)cc2)c2ccc(C(=O)O)c(O)c2)Cc2ccccc2C(F)(F)F)cc1 [BP2-061],1.8 ± 2.3 µM
4,Cc1ccc(S(=O)(=O)N(CC(=O)N(Cc2ccc(C3CCCCC3)cc2)c2ccc(C(=O)O)c(O)c2)Cc2cccc(F)c2)cc1 [BP2-066],4.4 ± 0.3 µM
5,Cc1ccc(S(=O)(=O)N(CC(=O)N(Cc2ccc(C3CCCCC3)cc2)c2ccc(C(=O)O)c(O)c2)Cc2ccncc2)cc1 [BP2-086],23.3 ± 0.7 µM
6,Cc1ccc(S(=O)(=O)N(CC(=O)N(Cc2ccc(C3CCCCC3)cc2)c2ccc(C(=O)O)c(O)c2)Cc2cc(F)c(F)c(F)c2F)cc1 [BP2-120],11.1 ± 0.6 µM
7,Cc1ccc(S(=O)(=O)N(CC(=O)N(Cc2ccc(C3CCCCC3)cc2)c2ccc(C(=O)O)c(O)c2)Cc2c(F)c(F)cc(F)c2F)cc1 [BP2-121],11.4 ± 0.4 µM
8,C=CCN(CC(=O)N(Cc1ccc(C2CCCCC2)cc1)c1ccc(C(=O)O)c(O)c1)S(=O)(=O)c1ccc(C)cc1 [BP2-125],27.9 ± 5 µM
9,Cc1ccc(S(=O)(=O)N(CC(=O)N(Cc2ccc(C3CCCCC3)cc2)c2ccc(C(=O)O)c(O)c2)Cc2cccnc2)cc1 [BP2-130],25.4 ± 0.8 µM
10,Cc1ccc(S(=O)(=O)N(CC(=O)N(Cc2ccc(C3CCCCC3)cc2)c2ccc(C(=O)O)c(O)c2)Cc2cccc(N)c2)cc1 [BP3-016],6.2 ± 1.6 µM
11,Cc1ccc(S(=O)(=O)N(CC(=O)N(Cc2ccc(C3CCCCC3)cc2)c2ccc(C(=O)O)c(O)c2)Cc2ccccc2N)cc1 [BP3-018],12 ± 0.5 µM

# Results, then the compound that gave them:
row,Ki,Structure (SMILES)
1,7.2 ± 2.2 µM,Cc1ccc(S(=O)(=O)N(CC(=O)N(Cc2ccc(C3CCCCC3)cc2)c2ccc(C(=O)O)c(O)c2)Cc2ccccc2)cc1 [BP2-027]
2,> 50 µM,Cc1ccc(CN(CC(=O)N(Cc2ccc(C3CCCCC3)cc2)c2ccc(C(=O)O)c(O)c2)S(=O)(=O)c2ccc(C)cc2)cc1 [BP2-028]
3,33 ± 22 µM,Cc1ccc(S(=O)(=O)N2CCC[C@H]2C(=O)N(Cc2ccc(C3CCCCC3)cc2)c2ccc(C(=O)O)c(O)c2)cc1 [BP2-029]
4,8.9 ± 1.4 µM,CCCN(CC(=O)N(Cc1ccc(C2CCCCC2)cc1)c1ccc(C(=O)O)c(O)c1)S(=O)(=O)c1ccc(C)cc1 [BP2-033]
5,2.6 ± 0.2 µM,Cc1ccc(S(=O)(=O)N(CC(=O)N(Cc2ccc(C3CCCCC3)cc2)c2ccc(C(=O)O)c(O)c2)Cc2ccccc2C)cc1 [BP2-047]
6,2.6 ± 0.2 µM,Cc1ccc(S(=O)(=O)N(CC(=O)N(Cc2ccc(C3CCCCC3)cc2)c2ccc(C(=O)O)c(O)c2)Cc2cccc(C)c2)cc1 [BP2-056]
7,2.5 ± 1 µM,Cc1ccc(S(=O)(=O)N(CC(=O)N(Cc2ccc(C3CCCCC3)cc2)c2ccc(C(=O)O)c(O)c2)Cc2ccc3ccccc3c2)cc1 [BP2-057]
8,3.8 ± 1.6 µM,Cc1ccc(S(=O)(=O)N(CC(=O)N(Cc2ccc(C3CCCCC3)cc2)c2ccc(C(=O)O)c(O)c2)Cc2ccc(F)cc2)cc1 [BP2-065]
9,5.3 ± 0.3 µM,Cc1ccc(S(=O)(=O)N(CC(=O)N(Cc2ccc(C3CCCCC3)cc2)c2ccc(C(=O)O)c(O)c2)Cc2ccccc2F)cc1 [BP2-067]
10,4.5 ± 1.9 µM,Cc1ccc(S(=O)(=O)N(CC(=O)N(Cc2ccc(C3CCCCC3)cc2)c2ccc(C(=O)O)c(O)c2)Cc2c(F)c(F)c(F)c(F)c2F)cc1 [BP2-068]
11,7.7 ± 1 µM,Cc1ccc(S(=O)(=O)N(CC(=O)N(Cc2ccc(C3CCCCC3)cc2)c2ccc(C(=O)O)c(O)c2)Cc2c(F)cc(F)c(F)c2F)cc1 [BP2-119]
12,48.7 ± 14.2 µM,Cc1ccc(S(=O)(=O)N(CC(N)=O)CC(=O)N(Cc2ccc(C3CCCCC3)cc2)c2ccc(C(=O)O)c(O)c2)cc1 [BP2-124]
13,22.6 ± 3 µM,Cc1ccc(S(=O)(=O)N(CC(=O)N(Cc2ccc(C3CCCCC3)cc2)c2ccc(C(=O)O)c(O)c2)Cc2ccccn2)cc1 [BP2-131]
14,5.5 ± 3.7 µM,Cc1ccc(S(=O)(=O)N(CC(=O)N(Cc2ccc(C3CCCCC3)cc2)c2ccc(C(=O)O)c(O)c2)Cc2ccc([N+](=O)[O-])cc2)cc1 [BP3-014]
